The source made the active and inactive calls. No cut-off for these calls is given here.
Experiments:
[1] = target: T1, Ubiquitin-conjugating enzyme E2 K (Homo sapiens) (UniProt P61086); assay: Stabilization of UBE2K (unknown origin) at 1 to 1000 uM assessed as modulation of ubiquitin discharge measured by ELISA assay; conditions: dose 1-1000 µM
T1 sequence (whole entry): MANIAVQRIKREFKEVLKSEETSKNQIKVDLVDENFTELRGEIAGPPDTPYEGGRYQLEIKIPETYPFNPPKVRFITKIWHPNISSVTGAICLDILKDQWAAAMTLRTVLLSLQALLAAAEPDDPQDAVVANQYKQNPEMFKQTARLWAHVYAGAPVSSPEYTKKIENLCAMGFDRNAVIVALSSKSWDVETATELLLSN

[2] = target: T1, Ubiquitin-conjugating enzyme E2 K (Homo sapiens); assay: Stabilization of mono-ubiquitinated UBE2K (unknown origin) at 0.25 to 25 uM assessed as decrease in poly-Ub measured by poly-ubiquitination assay; conditions: dose 0.25-25 µM
[3] = target: T1, Ubiquitin-conjugating enzyme E2 K (Homo sapiens); assay: Stabilization of mono-ubiquitinated UBE2K (unknown origin) at 500 uM assessed as decrease in poly-Ub measured by poly-ubiquitination assay
[4] = organism: Homo sapiens; assay: Stabilization of mono-ubiquitinated UBE2S (unknown origin) at 500 uM assessed as decrease in poly-Ub measured by poly-ubiquitination assay
[5] = target: Ubiquitin-conjugating enzyme E2 E1 (Homo sapiens) (UniProt P51965); assay: Stabilization of mono-ubiquitinated UBE2E1 (unknown origin) at 500 uM assessed as decrease in poly-Ub measured by poly-ubiquitination assay
Sequence of Ubiquitin-conjugating enzyme E2 E1 (Homo sapiens) (P51965 whole entry): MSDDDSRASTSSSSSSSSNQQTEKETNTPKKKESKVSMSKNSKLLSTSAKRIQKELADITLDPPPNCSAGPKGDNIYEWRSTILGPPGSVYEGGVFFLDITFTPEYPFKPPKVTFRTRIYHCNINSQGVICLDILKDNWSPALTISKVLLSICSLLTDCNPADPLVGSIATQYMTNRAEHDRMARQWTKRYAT

[6] = organism: Homo sapiens; assay: Stabilization of mono-ubiquitinated UBE2W (unknown origin) at 500 uM assessed as decrease in poly-Ub measured by poly-ubiquitination assay
[7] = organism: Homo sapiens; assay: Stabilization of mono-ubiquitinated UBE2Q2 (unknown origin) at 500 uM assessed as decrease in poly-Ub measured by poly-ubiquitination assay
[8] = target: T1, Ubiquitin-conjugating enzyme E2 K (Homo sapiens); assay: Stabilization of mono-ubiquitinated UBE2K (unknown origin) at 0.4 to 100 uM assessed as decrease in poly-Ub measured by poly-ubiquitination assay; conditions: dose 0.4-100 µM
[9] = organism: Homo sapiens; assay: Stabilization of mono-ubiquitinated UBE2D4 (unknown origin) at 500 uM assessed as decrease in poly-Ub measured by poly-ubiquitination assay
[10] = target: T1, Ubiquitin-conjugating enzyme E2 K (Homo sapiens); assay: Stabilization of mono-ubiquitinated UBE2K (unknown origin) at 16 to 100 uM assessed as decrease in poly-Ub measured by poly-ubiquitination assay; conditions: dose 16-100 µM
[11] = target: T1, Ubiquitin-conjugating enzyme E2 K (Homo sapiens); assay: Stabilization of mono-ubiquitinated UBE2K (unknown origin) at 0.25 to 50 uM assessed as decrease in poly-Ub measured by poly-ubiquitination assay; conditions: dose 0.25-50 µM
[12] = tested on: MV4-11; assay: Antitumor activity against human MV4-11 cells xenografted nude mouse assessed as tumor growth inhibition at 75 mg/kg, po administered twice a day for 24 days; type: functional; conditions: MV4-11, po, 576 h, time 24 day, read-out: TGI
[13] = tested on: MV4-11; assay: Antitumor activity against human MV4-11 cells xenografted nude mouse assessed as tumor growth inhibition at 150 mg/kg, po administered twice a day for 24 days; type: functional; conditions: MV4-11, po, 576 h, time 24 day, read-out: TGI
[14] = tested on: K562; assay: Antitumor activity against human K562 cells xenografted female SCID Bg mouse assessed as tumor growth inhibition at 25 mg/kg, po administered twice a day for 12 consecutive days and measured on day 10; type: functional; conditions: 240 h, time 10 day, read-out: TGI
[15] = tested on: K562; assay: Antitumor activity against human K562 cells xenografted female SCID Bg mouse assessed as tumor growth inhibition at 25 mg/kg, po administered twice a day for 12 consecutive days and measured on day 12; type: functional; conditions: 288 h, time 12 day, read-out: TGI

SMILES	Activity [1]	Activity [3]	Activity [4]	Activity [5]	Activity [6]	Activity [7]	Activity [8]	Activity [9]	other results
O=C(NCc1cc(-c2cccs2)[nH]n1)c1ccccc1OC(F)F	–	–	–	–	–	–	–	–	Activity [2]: Active
COc1ccccc1-c1cc(CNC(=O)c2ccccc2OC(F)(F)F)n[nH]1	Active	Active	inactive	inactive	inactive	inactive	Active	inactive	–
COc1ccc(F)cc1-c1nc(CNC(=O)c2ccccc2OC(F)F)n[nH]1	–	Active	inactive	inactive	inactive	inactive	–	inactive	–
O=C(NCc1cc(-c2cccs2)[nH]n1)c1ccccc1C(F)(F)F	–	–	–	–	–	–	–	–	Activity [10]: Active
O=C(NCc1cc(-c2cccs2)[nH]n1)c1ccccc1OC(F)(F)F	–	–	–	–	–	–	–	–	Activity [11]: Active
COc1ccc(F)cc1-c1nc(CNC(=O)c2cccc3c2OC(F)(F)O3)n[nH]1	Active	–	–	–	–	–	–	–	inhibition in vivo at 75 mg/kg [12]: 43%; inhibition in vivo at 150 mg/kg [13]: 37%
COc1ccc(F)cc1-c1nc(CNC(=O)c2cc(F)ccc2OC(F)(F)F)n[nH]1	–	–	–	–	–	–	–	–	inhibition in vivo at 25 mg/kg [14]: 73.6%; inhibition in vivo at 25 mg/kg [15]: 86.3%

More lines, main results first:

Activity [1]	Activity [3]	Activity [4]	Activity [5]	Activity [6]	Activity [7]	Activity [8]	Activity [9]	SMILES	other results
Active	–	–	–	–	–	–	–	COc1ccccc1-c1nc(CNC(=O)c2cc(C#N)ccc2OC(F)F)n[nH]1	–
Active	Active	inactive	inactive	inactive	inactive	Active	inactive	COc1ccccc1-c1nc(CNC(=O)c2ccccc2OC(F)F)n[nH]1	–
Active	–	–	–	–	–	Active	–	O=C(NCc1cc(-c2ccccc2O)[nH]n1)c1ccccc1OC(F)(F)F	–

From ChEMBL document CHEMBL5052833, “Ube2k modulators and methods for their use” (2021)
